Tests used:
[1] = tested on: phosphorus and calcium levels in the urine of rats; test: Urinary excretion of phosphate and calcium in rats (16 h overnight urine); format: in vivo, rat; conditions: rats, oral gavage, 16 h post-dose
[2] = tested on: absorption of sodium from the intestinal lumen; test: Fecal form score (FFS) 16 h after oral dose in rats; format: in vivo, rat; conditions: oral gavage, 16 h post-dose, scale 1-5
Method: (§1) Inhibition of intestinal sodium and phosphate absorption. Urinary sodium concentration and fecal form were measured to assess the ability of selected example compounds to inhibit the absorption of sodium from the intestinal lumen. Eight-week old Sprague-Dawley rats were purchased from Charles River Laboratories (Hollister, CA), were housed 2 per cage, and acclimated for at least 3 days before study initiation. Animals were fed Harlan Teklad Global 2018 rodent chow (Indianapolis, IN) and water ad libitum throughout the study and maintained in a standard light/dark cycle of 6 AM to 6 PM. On the day of the study, between 4 PM and 5 PM, a group of rats (n=6) were dosed via oral gavage with test compound, or a pharmaceutically acceptable salt thereof, or vehicle (water) at a volume of 10 mL/kg.
(§2) After dose administration animals were placed in individual metabolic cages where they were also fed the same chow in meal form and watered ad libitum. At 16 h post-dose, the urine samples were collected and fecal form was assessed by two independent observations. Fecal forms were scored according to a common scale associated with increasing fecal water to the wettest observation in the cage's collection funnel (1, normal pellet; 2, pellet adhering to sides of collection funnel due to moisture; 3, loss of normal pellet shape; 4, complete loss of shape with a blotting pattern; 5, liquid fecal streams evident). A rat's fecal form score (FFS) was determined by averaging both observational scores for all rats within a group (n=6). The vehicle group average was 1.

[3] = tested on: absorption of sodium from the intestinal lumen; test: Inhibition of intestinal sodium absorption: urinary sodium (uNa) 16 h after single oral dose in rats; format: in vivo, rat; conditions: oral gavage, 16 h post-dose
Method: as §1, §2
For urine samples, the volumes were determined gravimetrically and centrifuged at 3,600×g. The supernatants were diluted 100-fold in deionized Milli-Q water then filtered through a 0.2 μm GHP Pall AcroPrep filter plate (Pall Life Sciences, Ann Arbor, MI) prior to analysis by ion chromatography. Ten microliters of each filtered extract was injected onto a Dionex ICS-3000 ion chromatograph system (Dionex, Sunnyvale, CA). Cations were separated by an isocratic method using 25 mM methanesulfonic acid as the eluent on an IonPac CS12A 2 mm i.d.×250 mm, 8 μm particle size cation exchange column (Dionex). Sodium was quantified using standards prepared from a cation standard mix containing Li^+, Na^+, NH4^+, K^+, Mg^2+, and Ca^2+ (Dionex). The mean mass of sodium urinated for every group in the 16 h period was determined with the vehicle group usually urinating approximately 21 mg sodium. The urine Na (uNa) for rats in the test groups were expressed as a percentage of the vehicle mean and the means were compared to that of the vehicle group by utilizing a one-way analysis of variance coupled with a Dunnett's post hoc test.
Further experiments were performed to test the compounds under the persistent and prompt conditions described above, and to test their effects on urinary excretion of sodium in rats. The latter was performed by orally dosing the compounds in rats (single dose) and measuring urinary Na excretion (as a % of vehicle). The results are indicated as percentage of urinary sodium (UNa %); low values indicate relatively active compounds.

Rat NHE3 = molecular target: T1, Rat NHE3 (Rattus norvegicus, UniProt P26433); test: Cell-based NHE3 activity under prompt conditions (OK cells, BCECF pH recovery), rat NHE3; conditions: prompt conditions
T1 construct: expressed in transfected cells; host or cells: Opossum kidney (OK) cells (ATCC), electroporation
T1 sequence (P26433 29-831): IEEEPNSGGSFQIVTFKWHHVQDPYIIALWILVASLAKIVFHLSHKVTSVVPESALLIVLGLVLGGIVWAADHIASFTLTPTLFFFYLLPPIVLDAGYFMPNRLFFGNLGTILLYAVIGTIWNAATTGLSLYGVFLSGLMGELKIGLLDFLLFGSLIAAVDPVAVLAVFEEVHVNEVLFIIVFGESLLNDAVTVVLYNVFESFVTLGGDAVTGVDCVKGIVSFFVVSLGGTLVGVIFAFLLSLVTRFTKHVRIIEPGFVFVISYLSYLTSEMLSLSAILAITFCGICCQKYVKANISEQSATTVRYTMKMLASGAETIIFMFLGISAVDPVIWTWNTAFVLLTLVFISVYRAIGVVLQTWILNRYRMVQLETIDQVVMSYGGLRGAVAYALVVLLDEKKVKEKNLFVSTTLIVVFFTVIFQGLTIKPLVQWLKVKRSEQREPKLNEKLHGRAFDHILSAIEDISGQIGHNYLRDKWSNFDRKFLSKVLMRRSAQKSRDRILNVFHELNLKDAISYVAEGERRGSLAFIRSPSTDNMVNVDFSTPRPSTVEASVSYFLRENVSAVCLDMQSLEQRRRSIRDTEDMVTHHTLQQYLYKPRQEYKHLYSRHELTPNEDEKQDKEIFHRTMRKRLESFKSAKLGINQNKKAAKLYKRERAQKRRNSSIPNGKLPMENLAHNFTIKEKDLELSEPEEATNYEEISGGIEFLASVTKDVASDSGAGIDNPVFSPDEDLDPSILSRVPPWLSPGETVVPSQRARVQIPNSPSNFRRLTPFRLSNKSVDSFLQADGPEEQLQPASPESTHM
Method: Cell-based activity under Prompt Conditions. Rat or human NHE3-mediated Na^+-dependent H antiport was measured using a modification of the pH sensitive dye method originally reported by Paradiso (PNAS USA. 81:7436-7440, 1984). Opossum kidney (OK) cells were obtained from the ATCC and propagated per their instructions. The rat NHE3 gene (GenBank M85300) or the human NHE3 gene (GenBank NM_004174.1) was introduced into OK cells via electroporation, and cells were seeded into 96 well plates and grown overnight. Medium was aspirated from the wells, cells were washed twice with NaCl-HEPES buffer (100 mM NaCl, 50 mM HEPES, 10 mM glucose, 5 mM KCl, 2 mM CaCl2, 1 mM MgCl2, pH 7.4), then incubated for 30 min at room temperature with NH4Cl-HEPES buffer (20 mM NH4Cl, 80 mM NaCl, 50 mM HEPES, 5 mM KCl, 2 mM CaCl2, 1 mM MgCl2, pH 7.4) containing 5 μM bis(acetoxymethyl) 3,3′-(3′,6′-bis(acetoxymethoxy)-5-((acetoxymethoxy)carbonyl)-3-oxo-3H-spiro[isobenzofuran-1,9′-xanthene]-2′,7′-diyl)dipropanoate (BCECF-AM).
Cells were washed twice with Ammonium free, Na^+-free HEPES (100 mM choline, 50 mM HEPES, 10 mM glucose, 5 mM KCl, 2 mM CaCl2, 1 mM MgCl2, pH 7.4) and incubated in the same buffer for 10 minutes at room temperature to lower intracellular pH. […] Initial rates were plotted as the average 2 or more replicates, and pIC50 values were estimated using GraphPad Prism.
Cell-based activity of NHE3 Activity under ‘Prompt’ Conditions. This assay was performed as described in Example 1 (supra).

Prompt Rat NHE3 pIC50 (Rat NHE3) | Compound | Urine P % of control ([1]; dose 3 mg/kg) [%] | Fecal Form Score average ([2]; dose 3 mg/kg) | Urine Na % of control ([3]; dose 3 mg/kg) [%] | Urine P % of control ([1]; dose 10 mg/kg) [%] | Fecal Form Score average ([2]; dose 10 mg/kg) | Urine Na % of control ([3]; dose 10 mg/kg) [%] | Urine P % of control ([1]; dose 1 mg/kg) [%] | Fecal Form Score average ([2]; dose 1 mg/kg) | Urine Na % of control ([3]; dose 1 mg/kg) [%]
– | CN1Cc2c(Cl)cc(Cl)cc2[C@H](c2cccc(S(=O)(=O)NCCOCCOCCNC(=O)CCC(CCC(=O)NCCOCCOCCNS(=O)(=O)c3cccc([C@@H]4CN(C)Cc5c(Cl)cc(Cl)cc54)c3)(CCC(=O)NCCOCCOCCNS(=O)(=O)c3cccc([C@@H]4CN(C)Cc5c(Cl)cc(Cl)cc54)c3)NC(=O)[C@H]3CCCC[C@@H]3C(=O)O)c2)C1 (racemic) [compound 141] | 24 | 2 | 63 | – | – | – | – | – | –
5.80 | CN1Cc2c(Cl)cc(Cl)cc2[C@H](c2cccc(S(=O)(=O)NCCOCCOCCNC(=O)NCCN(CCNC(=O)NCCOCCOCCNS(=O)(=O)c3cccc([C@@H]4CN(C)Cc5c(Cl)cc(Cl)cc54)c3)C(=O)NCCOCCOCCNC(=O)c3ccc(-c4ccc(Cl)cc4)cc3)c2)C1 [compound 110] | 68 | 1 | 63 | – | – | – | – | – | –
<5.00 | CCCCCCCCOc1ccc(CNCCOCCOCCOCCNS(=O)(=O)c2cccc([C@@H]3CN(C)Cc4c(Cl)cc(Cl)cc43)c2)cc1 [compound 111] | – | – | – | 69 | 2 | 60 | – | – | –
6.70 | CCC(=O)NCCOCCOCCOCCNS(=O)(=O)c1cccc([C@@H]2CN(C)Cc3c(Cl)cc(Cl)cc32)c1 [compound 103] | – | – | – | 71 | 1 | 40 | – | – | –
<5.00 | CN1Cc2c(Cl)cc(Cl)cc2[C@H](c2cccc(S(=O)(=O)NCCOCCOCCOCCNC(=O)c3ccc(-c4ccc(Cl)cc4)cc3)c2)C1 [compound 93] | – | – | – | 75 | 1 | 78 | – | – | –
<5.00 | CCCCCCCCCCC(=O)NCCOCCOCCOCCNS(=O)(=O)c1cccc([C@@H]2CN(C)Cc3c(Cl)cc(Cl)cc32)c1 [compound 92] | – | – | – | 70 | 1 | 62 | – | – | –
– | CN(CC(=O)NCCOCCOCCNS(=O)(=O)c1ccc(O[C@H]2c3ccccc3C[C@@H]2N2CCCCC2)cc1)CC(=O)NCCOCCOCCNS(=O)(=O)c1ccc(O[C@H]2c3ccccc3C[C@@H]2N2CCCCC2)cc1 (racemic) [compound 50] | – | – | – | 50 | 1 | 82 | – | – | –
8.40 | CN1Cc2c(Cl)cc(Cl)cc2[C@H](c2cccc(S(=O)(=O)NCCOCCOCCNC(=O)NCCN(CCNC(=O)NCCOCCOCCNS(=O)(=O)c3cccc([C@@H]4CN(C)Cc5c(Cl)cc(Cl)cc54)c3)C(=O)NCCOCCOCCN)c2)C1 [compound 108] | 51 | 4 | 13 | – | – | – | – | – | –
<5.00 | CN1Cc2c(Cl)cc(Cl)cc2[C@H](c2cccc(S(=O)(=O)NCCOCCOCCOCCNCc3ccc(-c4ccc(Cl)cc4)cc3)c2)C1 [compound 112] | – | – | – | 67 | 1 | 73 | – | – | –
6.60 | CN1Cc2c(Cl)cc(Cl)cc2C(c2cccc(S(N)(=O)=O)c2)C1 (stereo not drawn) [compound 1] | – | – | – | 52 | 1 | 87 | – | – | –
5.90 | CN1Cc2c(Cl)cc(Cl)cc2[C@H](c2cccc(S(=O)(=O)NCCOCCOCCNC(=O)CN(CCOCCOCCOCCNC(=O)c3ccc(-c4ccc(Cl)cc4)cc3)CC(=O)NCCOCCOCCNS(=O)(=O)c3cccc([C@@H]4CN(C)Cc5c(Cl)cc(Cl)cc54)c3)c2)C1 [compound 105] | 154 | 1 | 119 | – | – | – | – | – | –
7.80 | CN1Cc2c(Cl)cc(Cl)cc2C(c2cccc(S(=O)(=O)NCCOCCOCCNC(=O)CN(CCOCCOCCOCCN)CC(=O)NCCOCCOCCNS(=O)(=O)c3cccc([C@@H]4CN(C)Cc5c(Cl)cc(Cl)cc54)c3)c2)C1 (stereo in doubt) [compound 120] | 71 | 1 | 71 | – | – | – | – | – | –
6.70 | C=CC(=O)NCCOCCOCCOCCNS(=O)(=O)c1cccc([C@@H]2CN(C)Cc3c(Cl)cc(Cl)cc32)c1 [compound 104] | – | – | – | 62 | 2 | 56 | – | – | –
6.60 | CCCCCCCCOCCOCCOCCOCCOCCOC(=O)NCCOCCOCCOCCNS(=O)(=O)c1cccc([C@@H]2CN(C)Cc3c(Cl)cc(Cl)cc32)c1 [compound 102] | – | – | – | 92 | 1 | 86 | – | – | –
7.30 | CN1Cc2c(Cl)cc(Cl)cc2[C@@H](c2cccc(S(=O)(=O)NCCOCCOCCNC(=O)NCCCCNC(=O)NCCOCCOCCNS(=O)(=O)c3cccc([C@@H]4CN(C)Cc5c(Cl)cc(Cl)cc54)c3)c2)C1 [compound 39] | – | – | – | 130 | 1 | 68 | 166 | 1 | 71

Compound | Prompt Rat NHE3 pIC50 (Rat NHE3) | Urine P % of control ([1]; dose 3 mg/kg) [%] | Fecal Form Score average ([2]; dose 3 mg/kg) | Urine Na % of control ([3]; dose 3 mg/kg) [%] | Urine P % of control ([1]; dose 10 mg/kg) [%] | Fecal Form Score average ([2]; dose 10 mg/kg) | Urine Na % of control ([3]; dose 10 mg/kg) [%] | Urine P % of control ([1]; dose 1 mg/kg) [%] | Fecal Form Score average ([2]; dose 1 mg/kg) | Urine Na % of control ([3]; dose 1 mg/kg) [%]
CC(C)CCC[C@@H](C)[C@H]1CC[C@H]2[C@@H]3CC=C4C[C@@H](OC(=O)NCCOCCOCCNC(=O)N(CCNC(=O)NCCOCCOCCNS(=O)(=O)c5cccc([C@@H]6CN(C)Cc7c(Cl)cc(Cl)cc76)c5)CCNC(=O)NCCOCCOCCNS(=O)(=O)c5cccc([C@@H]6CN(C)Cc7c(Cl)cc(Cl)cc76)c5)CC[C@]4(C)[C@H]3CC[C@]12C [compound 121] | <5.00 | 151 | 1 | 92 | – | – | – | – | – | –
CC(C)CCC[C@@H](C)[C@H]1CC[C@H]2[C@@H]3CC=C4C[C@@H](OC(=O)NCCOCCOCCOCCNS(=O)(=O)c5cccc([C@@H]6CN(C)Cc7c(Cl)cc(Cl)cc76)c5)CC[C@]4(C)[C@H]3CC[C@]12C [compound 125] | <5.00 | – | – | – | 278 | 1 | 81 | – | – | –

Reference: patent publication US20240366589A1, “NHE3-BINDING COMPOUNDS AND METHODS FOR INHIBITING PHOSPHATE TRANSPORT” (Ardelyx, Inc., priority 2013, published 2024)
